Each structure is given as a SMILES string.

Data on five compounds can be found in patent US12473274B2, “Heterocyclic compound as inhibitor of casein kinase 1-δ and/or activin receptor-like kinase 5” (Alchemedicine, Inc., priority 2020, dated 2025).

What all share (type): biochemical
The target in experiment [1] is T1, human p38α (Homo sapiens, UniProt Q16539).
T1 construct: GST (N); made in house; host or cells: E. coli
The experiment can be described thus: Test Example 1: p38α inhibition action (mobility shift, LabChip). The note with it: Modified Erktide 1 μM, ATP 150 μM, Mg 5 mM, 1 hour room temperature. As to the method:
(§1) Evaluation of CK1δ Inhibitory Activity and p38α Inhibition Action
(§2) 1. Preparation of Solution of Test Substance
(§3) A test substance was dissolved in dimethyl sulfoxide (DMSO). The solution was further diluted with DMSO to prepare a solution at a concentration 100-fold greater than the test concentration. The solution was further 25-fold diluted with an assay buffer to prepare a solution of the test substance. The positive control substance was also treated as above to prepare a solution of the positive control substance.
(§4) 2. Preparation of Kinase Protein
p38α: Used was the human p38α prepared as followed: GST (66 KDa) was fused with the N-terminal of the 9-352 amino acid sequence site in accession number NP_620581.1, followed by expression in E. coli and then refining by a glutathione sepharose chromatography system, and the product was activated with His-tagged MAP2K6, and was again purified by the glutathione sepharose chromatography system.
(§5) 3. Reagent and Test Method
(§6) 5 μL of a 4-fold solution of the test substance prepared with an assay buffer (20 mM HEPES, 0.01% Triton X-100, 2 mM DTT, pH: 7.5), 5 μL of a 4-fold substrate/ATP/metal solution, and 10 μL of a 2-fold kinase solution were mixed in wells of a 384-well plate made of polypropylene, and were reacted at room temperature for 1 hour. 70 μL of Termination Buffer (QuickScout Screening Assist MSA; Carna Biosciences) was added to terminate the reaction. The substrate peptide and phosphorylated peptide in the reaction solution were separated by a LabChip system (Perkin Elmer), and were quantitated. The kinase reaction was evaluated based on the product ratio (P/(P+S)) calculated from the substrate peptide peak height (S) and the phosphorylated peptide peak height (P).
(§7) The average signal from control wells containing all the reaction components was defined as 0% inhibition, and the average signal from background wells (enzyme not added) was defined as 100% inhibition. The inhibition rate was calculated from the average signal of test wells containing each test substance. The IC50 value was determined through approximation of the plot against the test substance concentration and the inhibition rate to a 4-parameter logistic curve by non-linear least squares. The compounds in Examples had good CK1δ inhibition activity. A large difference was found between the CK1δ inhibition concentration and the p38α inhibition concentration.

Experiment [2] deals with T2, human CK1δ (Homo sapiens, UniProt P48730).
T2 construct: GST (N); made in house; host or cells: E. coli
T2 sequence (P48730 1-294): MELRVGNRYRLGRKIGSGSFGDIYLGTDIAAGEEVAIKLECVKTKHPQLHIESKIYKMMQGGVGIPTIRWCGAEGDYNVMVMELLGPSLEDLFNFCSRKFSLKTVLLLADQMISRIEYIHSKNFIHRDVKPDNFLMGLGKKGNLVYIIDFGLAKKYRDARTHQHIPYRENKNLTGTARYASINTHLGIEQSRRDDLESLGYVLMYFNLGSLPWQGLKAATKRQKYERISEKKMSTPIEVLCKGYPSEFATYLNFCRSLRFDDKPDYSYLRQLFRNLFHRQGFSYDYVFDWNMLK
The experiment can be described thus: Test Example 1: CK1δ inhibitory activity (mobility shift, LabChip). The following applies: for IC50: CKtide 1 μM, ATP 10 μM, Mg 5 mM, 1 hour room temperature; for Ratio (p38α/CK1δ): ratio of p38α IC50 to CK1δ IC50, Test Example 1. As to the method:
as §1, §2, §3, §4
CK1δ: Used was the human CK1δ prepared by fusing GST (61 KDa) with the N-terminal of the human CK1δ enzyme activity domain (1-294 amino acid sequence site in accession number NP_001884.2), followed by expression in E. coli and then refining by a glutathione sepharose chromatography system.
as §5, §6, §7

For experiment [3], the target named is T3, ALK5 (Homo sapiens, UniProt P36897).
T3 sequence (P36897 34-503): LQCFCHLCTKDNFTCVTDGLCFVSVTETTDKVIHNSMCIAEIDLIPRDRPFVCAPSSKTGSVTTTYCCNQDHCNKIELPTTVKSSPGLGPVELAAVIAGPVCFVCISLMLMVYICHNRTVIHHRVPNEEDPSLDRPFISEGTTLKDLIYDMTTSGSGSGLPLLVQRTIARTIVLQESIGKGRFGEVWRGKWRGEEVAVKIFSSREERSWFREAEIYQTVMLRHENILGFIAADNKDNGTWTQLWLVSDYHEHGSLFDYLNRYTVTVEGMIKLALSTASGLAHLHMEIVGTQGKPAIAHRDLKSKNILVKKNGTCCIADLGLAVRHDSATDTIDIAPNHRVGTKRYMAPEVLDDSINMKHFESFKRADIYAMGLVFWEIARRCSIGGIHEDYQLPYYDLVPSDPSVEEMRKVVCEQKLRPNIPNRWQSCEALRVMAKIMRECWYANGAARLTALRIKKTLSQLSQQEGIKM
The experiment can be described thus: Test Example 3: ALK5 inhibition action (ADP-Glo, SignalChem enzyme). Details: GST; purchased SignalChem T07-11G. The following applies: enzyme 5 ng/μL, TGFBR1 Peptide 200 ng/μL, ATP 25 μM, 2 hours. As for the experimental part: (§8) Evaluation of ALK5 Inhibition Action
Using a human recombinant GST-tagged TGFB available from SignalChem (Catalog No. T07-11G), a substrate peptide TGFBR1 Peptide (Catalog No. T36-58), and ADP-Glo assay kit (Promega Corporation), measurement was performed on a 5-μL reaction system in a 384-well plate (GloMax plate reader) according to the document attached to the ADP-Glo assay kit. For the reaction conditions used, the enzyme concentration was 5 ng/μL, the substrate concentration was 200 ng/μL, the ATP concentration was 25 μM, and the reaction time was 2 hours. The IC50 value was calculated using GraphPad Prism version 5.01 based on the inhibition rate where the test substance (8 to 10 concentrations, diluted 3-fold from 3000 nM) was added.

Experiment [4] addresses T4, human recombinant GST-tagged p38α (Homo sapiens, UniProt Q16539).
T4 construct: GST; purchased SignalChem M39-10 BG
The experiment can be described thus: Test Example 5: p38α inhibition action (ADP-Glo, SignalChem enzyme). The note with it: enzyme 2 ng/μL, p38 Substrate 100 ng/μL, ATP 25 μM, 40 minutes. As to the method:
Evaluation of p38α Inhibition Action
(§9) Using a human recombinant GST-tagged p38α available from SignalChem (Catalog No. M39-10 BG), a substrate peptide p38 Substrate (Catalog No. P03-58), and ADP-Glo assay kit (Promega Corporation), measurement was performed on a 5-μL reaction system in a 384-well plate (GloMax plate reader) according to the document attached to the ADP-Glo assay kit. For the reaction conditions used, the enzyme concentration was 2 ng/μL, the substrate concentration was 100 ng/μL, the ATP concentration was 25 μM, and the reaction time was 40 minutes. The IC50 value was calculated using GraphPad Prism version 5.01 based on the inhibition rate where the test substance (8 to 10 concentrations, diluted 3-fold from 3000 nM) was added.

Experiment [5] has as its target T5, human recombinant GST-tagged CK1δ (Homo sapiens, UniProt P48730).
T5 construct: GST; purchased SignalChem C65-10G
The experiment can be described thus: Test Example 4: CK1δ inhibition action (ADP-Glo, SignalChem enzyme). The following applies: enzyme 2 ng/μL, Casein Dephosphorylated 200 ng/μL, ATP 25 μM, 40 minutes. As to the method: Evaluation of CK1δ Inhibition Action
as §9, with “CK1δ” for “p38α”, “C65-10G),” for “M39-10 BG),”, “Casein Dephosphorylated” for “p38 Substrate”, “C03-54BN),” for “P03-58),”, “200” for “100”

Experiment [6] addresses T3, ALK5. The experiment can be described thus: Test Example 2: ALK5 inhibition action (ADP-Glo kinase assay). As to the method: as §8, §2
A 10% DMSO stock solution (compound concentration: 10 mM) containing 0.1 mg/mL BSA (bovine serum albumin) was prepared as a solution of the test substance.
3. Reagent, Test Method, and Reaction Conditions
A kinase assay was performed using ADP-Glo™ assay kit available from Promega Corporation according to the following assay reaction recipe: • Component 1: 1 μL diluted active protein kinase • Component 2: 1 μL of the substrate • Component 3: 1 μL kinase assay buffer • Component 4: 1 μL of the compound (10 concentrations) or 10% DMSO • Component 5: 1 μL ATP stock (25 μM final well concentration)
The assay started with incubation of the reaction mixture in a 384-well plate at room temperature for 40 minutes. After the incubation, 5 μL ADP-Glo™ reagent was added. The plate was shaken, followed by incubation at room temperature for 40 minutes. […] The plate was measured on a GloMax plate reader using ADP-Glo™ Luminescence Protocol. […] The corrected activity value was calculated by subtracting the value of the blank control from the measured value.
The relative luminescence unit (RLU) was measured at 10 compound concentrations between 0.3 nM and 10,000 nM. The inhibition rate was calculated as follows: {(Control RLU−Test RLU)/(Control RLU−Background RLU)}×100 […]
(In general: ADP-Glo first removes unused ATP, then detects ADP through luciferase.)

T1 sequence (Q16539 9-352): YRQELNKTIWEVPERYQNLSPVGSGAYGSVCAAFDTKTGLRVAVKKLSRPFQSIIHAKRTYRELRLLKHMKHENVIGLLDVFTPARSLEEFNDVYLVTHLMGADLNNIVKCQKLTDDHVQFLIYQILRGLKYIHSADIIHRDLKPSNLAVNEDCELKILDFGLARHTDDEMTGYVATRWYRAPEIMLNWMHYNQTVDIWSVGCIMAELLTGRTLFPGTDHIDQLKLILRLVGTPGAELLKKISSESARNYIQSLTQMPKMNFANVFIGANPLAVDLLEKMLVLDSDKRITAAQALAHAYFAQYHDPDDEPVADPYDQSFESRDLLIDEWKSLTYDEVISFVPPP
T5 sequence (P48730 whole entry): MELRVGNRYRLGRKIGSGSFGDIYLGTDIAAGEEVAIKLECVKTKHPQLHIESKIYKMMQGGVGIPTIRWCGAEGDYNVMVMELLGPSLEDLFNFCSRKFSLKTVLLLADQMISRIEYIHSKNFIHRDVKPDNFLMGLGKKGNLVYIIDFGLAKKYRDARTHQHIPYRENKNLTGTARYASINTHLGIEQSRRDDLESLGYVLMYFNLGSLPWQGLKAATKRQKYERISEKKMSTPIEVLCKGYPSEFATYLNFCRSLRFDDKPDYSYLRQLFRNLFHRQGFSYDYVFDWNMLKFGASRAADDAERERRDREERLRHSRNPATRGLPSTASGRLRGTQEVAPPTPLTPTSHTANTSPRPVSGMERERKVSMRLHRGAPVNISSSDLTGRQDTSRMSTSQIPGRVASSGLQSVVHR
T4 sequence (Q16539 whole entry): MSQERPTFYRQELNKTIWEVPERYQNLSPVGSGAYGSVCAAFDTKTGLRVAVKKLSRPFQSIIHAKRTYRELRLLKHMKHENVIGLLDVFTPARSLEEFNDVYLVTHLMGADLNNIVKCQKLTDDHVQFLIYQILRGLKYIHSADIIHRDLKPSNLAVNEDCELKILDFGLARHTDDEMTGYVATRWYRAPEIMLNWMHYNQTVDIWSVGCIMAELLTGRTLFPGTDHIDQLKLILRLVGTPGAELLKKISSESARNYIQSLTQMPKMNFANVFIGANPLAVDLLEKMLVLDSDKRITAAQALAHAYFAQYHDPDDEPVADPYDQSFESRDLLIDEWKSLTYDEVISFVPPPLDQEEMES

With `Fc1ccc(-c2[nH]cnc2-c2ccc3c(c2)COC3)nc1` [Example 3, 2-(4-(1,3-Dihydroisobenzofuran-5-yl)-1H-imidazol-5-yl)-5-fluoropyridine], the IC50 (commonly the concentration that inhibits the measured activity by half) in experiment [1] worked out at 4.4 µM. In addition, in experiment [2], the IC50 was 48 nM and the “Ratio (p38α/CK1δ)” value is on record as 92.

Turning to `Cc1cccc(-c2[nH]cnc2-c2ccc3c(c2)COC3)n1` [Example 4, 2-(4-(1,3-Dihydroisobenzofuran-5-yl)-1H-imidazol-5-yl)-6-methylpyridine], the figures for the IC50 in experiment [3], in experiment [1] and in experiment [2] were 46 nM, 5.2 µM and 110 nM, respectively. Also, the “Ratio (p38α/CK1δ)” value in experiment [2] turned out to be 47.

As to `c1ccc(-c2[nH]c(C3CC3)nc2-c2ccc3c(c2)COC3)nc1` [Example 5, 2-(2-Cyclopropyl-4-(1,3-dihydroisobenzofuran-5-yl)-1H-imidazol-5-yl)pyridine], the values for the IC50 in experiment [4], in experiment [5] and in experiment [3] were above 3 µM, 200 nM and 330 nM, respectively.

With `c1ccc(-c2[nH]cnc2-c2ccc3c(c2)COC3)nc1` [Example 1, 2-(4-(1,3-Dihydroisobenzofuran-5-yl)-1H-imidazol-5-yl)pyridine], the half-inhibitory concentration (IC50) in experiment [1] was 4 µM; in experiment [6] (ATP 25 μM, 40 minutes, 10 concentrations 0.3-10,000 nM), 31 nM; in experiment [2], 21 nM. In addition, the “ALK5 inhibition activity (in words)” value in experiment [6] (Test Example 2, comment on Table 3) is recorded as “good ALK5 inhibition activity”. Besides, in experiment [2], the “Ratio (p38α/CK1δ)” value amounted to 190.

Take `Cc1nc(-c2ccc3c(c2)COC3)c(-c2ccccn2)[nH]1` [Example 2, 2-(4-(1,3-Dihydroisobenzofuran-5-yl)-2-methyl-1H-imidazol-5-yl)pyridine]: the IC50 in experiment [1] was above 10 µM. Moreover, in experiment [2], the concentration for half-maximal inhibition (IC50) worked out at 68 nM and the “Ratio (p38α/CK1δ)” value was above 150.
